Source: patent US12252492B2, “Substituted fused pyrrolo-diazepinones and uses thereof” (Northwestern University, priority 2018, dated 2025)

How the values were obtained:
Format in all cases: cell-based, human
KM12 = assay: NCI60 one-dose screen, KM12; details: KM12 (Colon Cancer); NCI 60 one-dose, 10^-5 M
Experimental: (§1) Anti-cancer activity screening of all compounds was performed by the NCI Developmental Therapeutics Program (DTP) through their NCI60 screening initiative. Assay details can be found at the website dtp.cancer.gov/discovery_development/nci-60/methodology.htm. Information from this website is reproduced here for convenience.
(§2) As of early 2007 all compounds submitted to the NCI 60 Cell screen are tested initially at a single high dose (10^-5 M) in the full NCI 60 cell panel. Only compounds which satisfy pre-determined threshold inhibition criteria in a minimum number of cell lines will progress to the full 5-dose assay. The threshold inhibition criteria for progression to the 5-dose screen was selected to efficiently capture compounds with anti-proliferative activity based on careful analysis of historical DTP screening data. The threshold criteria may be updated as additional data becomes available.
(§3) The One-dose data will be reported as a mean graph of the percent growth of treated cells and will be similar in appearance to mean graphs from the 5-dose assay. […]
(§4) Following drug addition, the plates are incubated for an additional 48 h at 37° C., 5% CO2, 95% air, and 100% relative humidity. […] Bound stain is subsequently solubilized with 10 mM trizma base, and the absorbance is read on an automated plate reader at a wavelength of 515 nm. […]

SK-OV-3 = assay: NCI60 one-dose screen, SK-OV-3; details: SK-OV-3 (Ovarian Cancer); NCI 60 one-dose, 10^-5 M
Experimental: as §1, §2, §3, §4

UO-31 = assay: NCI60 one-dose screen, UO-31; details: UO-31 (Renal Cancer); NCI 60 one-dose, 10^-5 M
Experimental: as §1, §2, §3, §4

SK-MEL-28 = assay: NCI60 one-dose screen, SK-MEL-28; details: SK-MEL-28 (Melanoma); NCI 60 one-dose, 10^-5 M
Experimental: as §1, §2, §3, §4

SNB-19 = assay: NCI60 one-dose screen, SNB-19; details: SNB-19 (CNS Cancer); NCI 60 one-dose, 10^-5 M
Experimental: as §1, §2, §3, §4

MOLT-4 = assay: NCI60 one-dose screen, MOLT-4; details: MOLT-4 (Leukemia); NCI 60 one-dose, 10^-5 M
Experimental: as §1, §2, §3, §4

UACC-257 = assay: NCI60 one-dose screen, UACC-257; details: UACC-257 (Melanoma); NCI 60 one-dose, 10^-5 M
Experimental: as §1, §2, §3, §4

NCI/ADR-RES = assay: NCI60 one-dose screen, NCI/ADR-RES; details: NCI/ADR-RES (Ovarian Cancer); NCI 60 one-dose, 10^-5 M
Experimental: as §1, §2, §3, §4

ACHN = assay: NCI60 one-dose screen, ACHN; details: ACHN (Renal Cancer); NCI 60 one-dose, 10^-5 M
Experimental: as §1, §2, §3, §4

SW-620 = assay: NCI60 one-dose screen, SW-620; details: SW-620 (Colon Cancer); NCI 60 one-dose, 10^-5 M
Experimental: as §1, §2, §3, §4

NCI-H23 = assay: NCI60 one-dose screen, NCI-H23; details: NCI-H23 (Non-Small Cell Lung Cancer); NCI 60 one-dose, 10^-5 M
Experimental: as §1, §2, §3, §4

UACC-62 = assay: NCI60 one-dose screen, UACC-62; details: UACC-62 (Melanoma); NCI 60 one-dose, 10^-5 M
Experimental: as §1, §2, §3, §4

PC-3 = assay: NCI60 one-dose screen, PC-3; details: PC-3 (Prostate Cancer); NCI 60 one-dose, 10^-5 M
Experimental: as §1, §2, §3, §4

HT29 = assay: NCI60 one-dose screen, HT29; details: HT29 (Colon Cancer); NCI 60 one-dose, 10^-5 M
Experimental: as §1, §2, §3, §4

RXF 393 = assay: NCI60 one-dose screen, RXF 393; details: RXF 393 (Renal Cancer); NCI 60 one-dose, 10^-5 M
Experimental: as §1, §2, §3, §4

TK-10 = assay: NCI60 one-dose screen, TK-10; details: TK-10 (Renal Cancer); NCI 60 one-dose, 10^-5 M
Experimental: as §1, §2, §3, §4

SF-539 = assay: NCI60 one-dose screen, SF-539; details: SF-539 (CNS Cancer); NCI 60 one-dose, 10^-5 M
Experimental: as §1, §2, §3, §4

MALME-3M = assay: NCI60 one-dose screen, MALME-3M; details: MALME-3M (Melanoma); NCI 60 one-dose, 10^-5 M
Experimental: as §1, §2, §3, §4

## CC(=O)N1c2ccccc2NC2=C(C(=O)N(C)C2(C)C)C1c1ccccc1 (stereo not drawn) [NUCC-60872]
KM12
  Growth Percent: 19.79%
SK-OV-3
  Growth Percent: 55.42%
UO-31
  Growth Percent: 81.99%
SK-MEL-28
  Growth Percent: 56.02%
SNB-19
  Growth Percent: 39.87%
MOLT-4
  Growth Percent: 33.27%
UACC-257
  Growth Percent: 36.37%
NCI/ADR-RES
  Growth Percent: 101.74%
ACHN
  Growth Percent: 95.96%
SW-620
  Growth Percent: 24.24%
NCI-H23
  Growth Percent: 50.21%
UACC-62
  Growth Percent: 32.33%
PC-3
  Growth Percent: 36.41%
HT29
  Growth Percent: 25.22%
RXF 393
  Growth Percent: 27.79%
TK-10
  Growth Percent: 87.08%
SF-539
  Growth Percent: 20.14%
MALME-3M
  Growth Percent: 44.26%

## CC(=O)N1c2ccccc2NC2=C(C(=O)N(Cc3ccccc3)C2(C)C)C1c1ccco1 (stereo not drawn) [NUCC-608455]
KM12
  Growth Percent: 14.83%
SK-OV-3
  Growth Percent: 22.71%
UO-31
  Growth Percent: 52.54%
SK-MEL-28
  Growth Percent: 57.26%
SNB-19
  Growth Percent: 23.61%
MOLT-4
  Growth Percent: 28.58%
UACC-257
  Growth Percent: 77.61%
NCI/ADR-RES
  Growth Percent: 82.92%
ACHN
  Growth Percent: 33.51%
SW-620
  Growth Percent: 21.68%
NCI-H23
  Growth Percent: 20.85%
UACC-62
  Growth Percent: 21.25%
PC-3
  Growth Percent: 29.67%
HT29
  Growth Percent: 9.99%
RXF 393
  Growth Percent: −11.72%
TK-10
  Growth Percent: 54.92%
SF-539
  Growth Percent: −17.85%
MALME-3M
  Growth Percent: 69.89%
